In article PMC7615343, “Fluorination Influences the Bioisostery of Myo-Inositol Pyrophosphate Analogs” (Chemistry (Weinheim an der Bergstrasse, Germany), 2023) one finds ΔH, ΔS and Kd data, which are given here for two compounds.

In the assay the target is T1, PPIP5K2^1-366 (human PPIP5K2 kinase domain) (Homo sapiens, UniProt O43314).
T1 construct: one comprised residues 1–366; made in house
T1 sequence (O43314 1-366): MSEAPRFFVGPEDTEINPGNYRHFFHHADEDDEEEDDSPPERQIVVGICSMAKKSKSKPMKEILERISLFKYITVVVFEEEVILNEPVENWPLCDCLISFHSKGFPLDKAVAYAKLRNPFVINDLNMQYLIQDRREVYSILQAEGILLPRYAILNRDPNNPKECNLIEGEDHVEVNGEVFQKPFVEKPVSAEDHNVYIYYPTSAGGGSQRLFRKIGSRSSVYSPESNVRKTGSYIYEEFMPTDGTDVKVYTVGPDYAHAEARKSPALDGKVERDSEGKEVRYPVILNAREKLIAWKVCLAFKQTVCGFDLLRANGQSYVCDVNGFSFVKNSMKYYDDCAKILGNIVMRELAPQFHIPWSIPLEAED
Briefly: Isothermal titration calorimetry of ligand binding to PPIP5K2KD. The conditions noted are these: ITC, 25°C; for ΔH / ΔS: 7.5 μM PPIP5K2^1-366, 75 μM ligand, pH 7.2; for Kd: 7.5 μM PPIP5K2^1-366 in cell, 75 μM ligand in syringe, pH 7.2, 1mM AMP-PNP, 1mM MgCl2, read-out: Kd (apparent).
Description: We next used isothermal titration calorimetry (ITC) to analyze the interactions of PPIP5K2^KD with 5PP-IP5 and each of the four analogs studied herein (Figure 5A-E). […] At the same time, the enthalpic gain for binding was largest for 5PCF2Am-IP5 and 5PA-IP5. A possible explanation may be that these two ligands are less strongly hydrated, due to their lower overall charge. The enthalpic cost for dehydration of 5PCF2Am-IP5 and 5PA-IP5 is therefore lower, compared to the other molecules, resulting in a higher enthalpic gain overall. A less strongly hydrated ligand will also release fewer water molecules upon binding, consistent with the lower entropic gains.
Figure 5 Analysis of ligand binding to the PPIP5K2^KD by ITC. Test solutions contained 7.5 μM of PPIP5K2^1-366 in the sample cell and 75 μM ligand in the syringe. Other details are provided in the Methods Section. Representative thermograms (1 of 3 replicates) are shown for titration of either (A) 5PP-IP5; (B) 5PCPF2P-IP5; (C) 5PCP-IP5; (D) 5PCF2Am-IP5; (E) 5PA-IP5. (F) Corresponding thermodynamic data. TEXT PRINTED IN THE PICTURE: (F) 5PP-: Kd (nM): 123 ± 13; ΔH (kJ/mol): -26 ± 2; ΔS (kJ/mol/deg): 0.046 ± 0.008 | (F) 5PCF2-: Kd (nM): 246 ± 10; ΔH (kJ/mol): -16 ± 1; ΔS (kJ/mol/deg): 0.072 ± 0.005 | (F) 5PCP-: Kd (nM): 100 ± 10; ΔH (kJ/mol): -20 ± 2; ΔS (kJ/mol/deg): 0.067 ± 0.016 | (F) 5PCF2-Am-: Kd (nM): 90 ± 13; ΔH (kJ/mol): -38 ± 2; ΔS (kJ/mol/deg): 0.007 ± 0.004 | (F) 5PA-: Kd (nM): 90 ± 7; ΔH (kJ/mol): -36 ± 3; ΔS (kJ/mol/deg): 0.013 ± 0.008 […]
(§1) Calorimetry experiments were performed using a MicroCal PEAQ-ITC (Malvern Panalytical) with 7.5 μM recombinant PPIP5K21-366 in the sample cell and 75 μM of ligand in the syringe, each of which was maintained at 25°C in buffer containing 20 mM HEPES, pH 7.2, 150 mM KCl, 0.05 mM EDTA, 1mM AMP-PNP, 1mM MgCl2 as indicated. The sample cell (volume = 204 μL) and the syringe were cleaned before each run. Thermograms were constructed from 13 injections, each of which involved 3 μL of ligand delivered for 6 s, with an equilibration time of 150-300 s between each injection. The stirring speed was set to 750 rpm. Data were fitted to a single binding site model using the analysis software provided by the manufacturer. At least three runs were performed for each condition.
Protein expression and purification.
Throughout the main text, PPIP5K2KD is deployed as an abbreviation for the human PPIP5K2 kinase domain. However, two different constructs were utilized, as described in the figure legends and within the Methods section below: one comprised residues 1–366 (PPIP5K21-366) and the other comprised residues 41–366 (PPIP5K241-366). Both constructs were expressed and purified as described previously.[6] The human DIPP1 construct (residues 1-148) was expressed and purified as described in [7]. […]
The molecular graphics representations wer e prepared with the program PyMol (Schrödinger, LLC). Atomic coordinates an d structure factors have been deposited with the Protein Data Bank with accession codes 8G9C, 8G9D, 8G9E.
PPIP5K2KD reverse kinase assay […]
Isothermal titration calorimetry
as §1, with “PPIP5K21–366” for “PPIP5K21-366”, “2 04 µL)” for “204 μL)”, “µL” for “μL”, “150 -300” for “150-300”, “cond ition. […]” for “condition.”
Background: ITC needs no label: the signal is the heat of the interaction.

`O=P(O)(O)O[C@H]1[C@@H](OP(=O)(O)O)[C@H](OP(=O)(O)O)[C@@H](OP(=O)(O)C(F)(F)P(=O)(O)O)[C@H](OP(=O)(O)O)[C@H]1OP(=O)(O)O` [5PCF2P-IP5]: the ΔH is listed as -16 ± 1 kJ/mol, the ΔS was determined as 0.072 ± 0.005 kJ/mol/deg and the Kd came to 0.246 µM.
`O=P(O)(O)CP(=O)(O)O[C@H]1[C@H](OP(=O)(O)O)[C@@H](OP(=O)(O)O)[C@@H](OP(=O)(O)O)[C@@H](OP(=O)(O)O)[C@@H]1OP(=O)(O)O` [5PCP-IP5]: the ΔH is recorded as -20 ± 2 kJ/mol, the ΔS stood at 0.067 ± 0.016 kJ/mol/deg and the Kd is 0.1 ± 0.01 µM.
